Assay results published in patent US12559465B2, “Substituted benzotriazinone metabolites of a GPR139 agonist” (TAKEDA PHARMACEUTICAL COMPANY LIMITED, priority 2020, dated 2026).

What was measured:
Assay type in all cases: in vitro ADME
BSEP [1] = biological target: BSEP (Homo sapiens, UniProt O95342); experiment: BSEP inhibition in membrane vesicles (human)
Protocol: (§1) Inhibition of BSEP (dog and human) and MRP2 (dog and human) by Compound A and Compound B were tested in membrane vesicles.

MRP2 [2] = biological target: MRP2 (Canis lupus familiaris, UniProt A0A8I3SCV5); experiment: MRP2 inhibition in membrane vesicles (dog)
Protocol: as §1

BSEP [3] = biological target: T1, BSEP (Canis lupus familiaris, UniProt B8K1W2); experiment: BSEP inhibition in membrane vesicles (dog)
T1 sequence (B8K1W2 1-1325): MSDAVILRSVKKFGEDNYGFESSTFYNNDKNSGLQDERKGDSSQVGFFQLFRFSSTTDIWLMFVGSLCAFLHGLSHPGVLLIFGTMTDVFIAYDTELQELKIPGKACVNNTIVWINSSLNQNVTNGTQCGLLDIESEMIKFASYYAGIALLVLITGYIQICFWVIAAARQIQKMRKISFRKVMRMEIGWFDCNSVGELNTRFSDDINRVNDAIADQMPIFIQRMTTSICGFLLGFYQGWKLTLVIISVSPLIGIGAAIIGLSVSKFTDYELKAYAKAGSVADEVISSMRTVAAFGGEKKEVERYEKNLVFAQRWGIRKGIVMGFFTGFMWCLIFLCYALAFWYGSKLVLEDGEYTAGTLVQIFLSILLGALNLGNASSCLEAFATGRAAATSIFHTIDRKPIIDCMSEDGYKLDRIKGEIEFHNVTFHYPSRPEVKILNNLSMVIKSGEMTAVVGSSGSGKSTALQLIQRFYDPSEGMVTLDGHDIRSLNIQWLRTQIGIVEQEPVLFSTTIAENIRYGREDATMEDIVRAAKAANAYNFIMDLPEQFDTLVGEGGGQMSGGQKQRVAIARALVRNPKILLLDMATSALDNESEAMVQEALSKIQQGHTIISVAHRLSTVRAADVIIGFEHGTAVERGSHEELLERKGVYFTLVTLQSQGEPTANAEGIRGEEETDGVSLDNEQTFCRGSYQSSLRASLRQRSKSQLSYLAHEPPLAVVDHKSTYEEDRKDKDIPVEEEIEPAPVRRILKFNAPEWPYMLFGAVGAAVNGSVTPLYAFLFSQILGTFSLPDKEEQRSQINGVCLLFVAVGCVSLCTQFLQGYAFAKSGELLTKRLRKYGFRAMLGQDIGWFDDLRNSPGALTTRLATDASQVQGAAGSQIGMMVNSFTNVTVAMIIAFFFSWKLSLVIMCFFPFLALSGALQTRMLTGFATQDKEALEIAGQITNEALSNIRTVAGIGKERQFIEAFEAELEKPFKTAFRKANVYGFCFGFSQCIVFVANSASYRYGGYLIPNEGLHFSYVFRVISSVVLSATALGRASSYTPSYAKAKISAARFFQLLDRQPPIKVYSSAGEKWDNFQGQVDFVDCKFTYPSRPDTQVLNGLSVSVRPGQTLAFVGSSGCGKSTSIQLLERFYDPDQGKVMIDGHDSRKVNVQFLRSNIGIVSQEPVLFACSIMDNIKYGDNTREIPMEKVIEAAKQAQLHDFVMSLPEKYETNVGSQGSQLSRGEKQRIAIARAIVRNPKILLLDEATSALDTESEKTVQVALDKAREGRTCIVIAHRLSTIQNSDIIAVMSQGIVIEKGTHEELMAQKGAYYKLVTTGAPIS
Protocol: as §1

MRP2 [4] = biological target: MRP2 (Homo sapiens, UniProt Q92887); experiment: MRP2 inhibition in membrane vesicles (human)
Protocol: as §1

MRP2 [5] = biological target: MRP2 (Rattus norvegicus, UniProt Q63120); experiment: MRP2 inhibition in membrane vesicles (rat)
BSEP [6] = biological target: T2, BSEP (Rattus norvegicus, UniProt O70127); experiment: BSEP inhibition in membrane vesicles (rat)
T2 sequence (O70127 1-1321): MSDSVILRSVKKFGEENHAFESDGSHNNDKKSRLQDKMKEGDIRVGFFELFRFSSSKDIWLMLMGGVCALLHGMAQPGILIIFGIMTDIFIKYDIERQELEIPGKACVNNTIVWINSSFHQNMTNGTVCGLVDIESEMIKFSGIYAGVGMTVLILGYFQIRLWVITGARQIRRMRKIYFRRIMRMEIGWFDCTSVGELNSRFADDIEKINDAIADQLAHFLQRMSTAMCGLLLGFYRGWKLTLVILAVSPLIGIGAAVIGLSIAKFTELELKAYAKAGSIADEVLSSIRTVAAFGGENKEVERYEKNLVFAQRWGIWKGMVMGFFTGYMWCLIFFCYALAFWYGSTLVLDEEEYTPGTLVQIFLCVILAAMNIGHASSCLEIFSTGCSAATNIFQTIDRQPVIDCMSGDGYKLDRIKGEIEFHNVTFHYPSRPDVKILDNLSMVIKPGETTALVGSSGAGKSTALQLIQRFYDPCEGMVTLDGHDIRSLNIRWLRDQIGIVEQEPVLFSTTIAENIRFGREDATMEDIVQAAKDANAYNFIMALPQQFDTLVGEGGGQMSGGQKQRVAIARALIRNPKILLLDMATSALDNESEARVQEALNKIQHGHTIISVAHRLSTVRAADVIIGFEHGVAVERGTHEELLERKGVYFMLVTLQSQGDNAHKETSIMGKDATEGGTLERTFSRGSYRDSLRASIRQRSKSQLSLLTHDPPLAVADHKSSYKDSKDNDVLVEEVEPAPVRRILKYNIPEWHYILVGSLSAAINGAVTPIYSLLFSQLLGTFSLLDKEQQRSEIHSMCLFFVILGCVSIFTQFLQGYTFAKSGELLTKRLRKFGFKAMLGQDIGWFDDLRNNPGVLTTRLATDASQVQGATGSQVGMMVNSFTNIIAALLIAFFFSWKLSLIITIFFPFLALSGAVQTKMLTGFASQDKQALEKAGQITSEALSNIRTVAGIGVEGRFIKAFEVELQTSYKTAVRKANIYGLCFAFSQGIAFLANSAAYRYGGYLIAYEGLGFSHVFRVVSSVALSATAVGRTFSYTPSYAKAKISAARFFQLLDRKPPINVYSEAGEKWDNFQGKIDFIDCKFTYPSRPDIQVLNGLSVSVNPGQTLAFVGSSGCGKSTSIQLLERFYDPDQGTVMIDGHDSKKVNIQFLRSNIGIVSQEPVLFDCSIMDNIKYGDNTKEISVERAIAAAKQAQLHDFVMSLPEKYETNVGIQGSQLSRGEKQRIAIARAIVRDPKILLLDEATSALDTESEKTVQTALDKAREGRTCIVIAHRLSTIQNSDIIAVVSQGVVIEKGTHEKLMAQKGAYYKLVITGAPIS

MRP4 = biological target: T3, MRP4 (Homo sapiens, UniProt O15439); experiment: MRP4 inhibition (human)
T3 sequence (O15439 1-1325): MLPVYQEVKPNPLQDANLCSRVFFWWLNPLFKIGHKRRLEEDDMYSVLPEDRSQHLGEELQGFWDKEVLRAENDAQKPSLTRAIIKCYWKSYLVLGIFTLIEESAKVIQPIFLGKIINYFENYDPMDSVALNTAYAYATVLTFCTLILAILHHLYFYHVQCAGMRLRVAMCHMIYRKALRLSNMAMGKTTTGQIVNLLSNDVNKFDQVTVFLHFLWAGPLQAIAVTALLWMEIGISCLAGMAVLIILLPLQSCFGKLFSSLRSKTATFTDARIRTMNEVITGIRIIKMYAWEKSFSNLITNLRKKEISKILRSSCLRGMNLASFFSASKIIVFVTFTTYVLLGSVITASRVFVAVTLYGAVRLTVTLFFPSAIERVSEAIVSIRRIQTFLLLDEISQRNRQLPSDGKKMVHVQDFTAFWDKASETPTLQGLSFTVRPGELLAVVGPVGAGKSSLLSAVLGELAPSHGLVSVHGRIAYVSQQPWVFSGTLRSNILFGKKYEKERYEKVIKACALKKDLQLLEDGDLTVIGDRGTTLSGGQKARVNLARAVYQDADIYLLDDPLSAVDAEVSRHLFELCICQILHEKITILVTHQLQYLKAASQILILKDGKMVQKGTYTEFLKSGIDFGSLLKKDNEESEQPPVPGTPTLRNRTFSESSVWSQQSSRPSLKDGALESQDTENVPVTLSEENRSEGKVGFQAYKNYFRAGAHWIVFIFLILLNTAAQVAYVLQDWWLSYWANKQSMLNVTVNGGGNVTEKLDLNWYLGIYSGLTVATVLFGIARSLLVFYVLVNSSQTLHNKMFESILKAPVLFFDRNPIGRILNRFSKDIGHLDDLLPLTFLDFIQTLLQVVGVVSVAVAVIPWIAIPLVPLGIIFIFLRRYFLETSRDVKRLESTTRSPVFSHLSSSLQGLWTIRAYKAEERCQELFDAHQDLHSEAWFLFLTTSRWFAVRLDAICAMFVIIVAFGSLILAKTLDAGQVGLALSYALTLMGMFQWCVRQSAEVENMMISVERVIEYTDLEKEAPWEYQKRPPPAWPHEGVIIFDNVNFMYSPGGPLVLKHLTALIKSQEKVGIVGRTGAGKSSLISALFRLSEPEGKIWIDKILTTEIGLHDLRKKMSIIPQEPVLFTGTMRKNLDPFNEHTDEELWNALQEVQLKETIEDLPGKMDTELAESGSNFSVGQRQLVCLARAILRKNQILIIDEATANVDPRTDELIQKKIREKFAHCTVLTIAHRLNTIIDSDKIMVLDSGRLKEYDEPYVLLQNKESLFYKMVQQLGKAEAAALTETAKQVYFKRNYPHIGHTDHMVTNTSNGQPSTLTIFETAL

MRP3 = MRP3 (Homo sapiens, UniProt O15438); experiment: MRP3 inhibition (human)

Chain of BSEP (Homo sapiens, UniProt O95342) (O95342 whole entry): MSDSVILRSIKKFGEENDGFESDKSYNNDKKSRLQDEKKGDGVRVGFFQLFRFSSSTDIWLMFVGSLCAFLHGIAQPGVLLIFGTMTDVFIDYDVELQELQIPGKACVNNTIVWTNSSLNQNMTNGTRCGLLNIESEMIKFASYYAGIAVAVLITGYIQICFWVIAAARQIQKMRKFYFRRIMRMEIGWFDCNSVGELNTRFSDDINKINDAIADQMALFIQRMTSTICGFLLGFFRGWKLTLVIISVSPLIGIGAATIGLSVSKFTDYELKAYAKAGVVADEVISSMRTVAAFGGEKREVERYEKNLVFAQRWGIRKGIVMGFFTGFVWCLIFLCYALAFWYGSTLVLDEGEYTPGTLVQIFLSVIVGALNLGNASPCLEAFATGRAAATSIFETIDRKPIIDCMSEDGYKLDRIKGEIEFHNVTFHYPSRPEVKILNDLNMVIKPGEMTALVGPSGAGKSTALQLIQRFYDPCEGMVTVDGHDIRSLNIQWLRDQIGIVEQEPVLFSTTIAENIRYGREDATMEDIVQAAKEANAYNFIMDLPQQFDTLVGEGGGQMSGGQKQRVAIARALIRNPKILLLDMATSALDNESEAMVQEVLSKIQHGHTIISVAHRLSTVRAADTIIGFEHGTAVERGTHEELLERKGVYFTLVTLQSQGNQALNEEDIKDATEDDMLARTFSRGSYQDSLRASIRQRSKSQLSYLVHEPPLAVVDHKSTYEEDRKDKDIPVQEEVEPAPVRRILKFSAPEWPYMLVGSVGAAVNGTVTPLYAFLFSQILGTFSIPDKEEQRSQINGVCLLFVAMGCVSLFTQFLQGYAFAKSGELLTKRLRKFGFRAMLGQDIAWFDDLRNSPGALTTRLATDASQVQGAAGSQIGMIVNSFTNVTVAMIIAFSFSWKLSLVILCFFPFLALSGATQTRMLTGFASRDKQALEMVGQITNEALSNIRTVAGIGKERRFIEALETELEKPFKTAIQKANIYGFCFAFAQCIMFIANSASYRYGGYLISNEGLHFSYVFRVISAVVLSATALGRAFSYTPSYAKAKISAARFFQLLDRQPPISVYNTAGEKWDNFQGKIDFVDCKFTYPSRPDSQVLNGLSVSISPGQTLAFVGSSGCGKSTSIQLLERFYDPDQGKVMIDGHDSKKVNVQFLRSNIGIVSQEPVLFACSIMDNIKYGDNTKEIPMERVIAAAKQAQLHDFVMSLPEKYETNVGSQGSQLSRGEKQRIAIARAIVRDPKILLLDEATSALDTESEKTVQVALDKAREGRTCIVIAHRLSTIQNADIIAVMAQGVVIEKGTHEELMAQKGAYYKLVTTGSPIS
Chain of MRP2 (Homo sapiens, UniProt Q92887) (Q92887 whole entry): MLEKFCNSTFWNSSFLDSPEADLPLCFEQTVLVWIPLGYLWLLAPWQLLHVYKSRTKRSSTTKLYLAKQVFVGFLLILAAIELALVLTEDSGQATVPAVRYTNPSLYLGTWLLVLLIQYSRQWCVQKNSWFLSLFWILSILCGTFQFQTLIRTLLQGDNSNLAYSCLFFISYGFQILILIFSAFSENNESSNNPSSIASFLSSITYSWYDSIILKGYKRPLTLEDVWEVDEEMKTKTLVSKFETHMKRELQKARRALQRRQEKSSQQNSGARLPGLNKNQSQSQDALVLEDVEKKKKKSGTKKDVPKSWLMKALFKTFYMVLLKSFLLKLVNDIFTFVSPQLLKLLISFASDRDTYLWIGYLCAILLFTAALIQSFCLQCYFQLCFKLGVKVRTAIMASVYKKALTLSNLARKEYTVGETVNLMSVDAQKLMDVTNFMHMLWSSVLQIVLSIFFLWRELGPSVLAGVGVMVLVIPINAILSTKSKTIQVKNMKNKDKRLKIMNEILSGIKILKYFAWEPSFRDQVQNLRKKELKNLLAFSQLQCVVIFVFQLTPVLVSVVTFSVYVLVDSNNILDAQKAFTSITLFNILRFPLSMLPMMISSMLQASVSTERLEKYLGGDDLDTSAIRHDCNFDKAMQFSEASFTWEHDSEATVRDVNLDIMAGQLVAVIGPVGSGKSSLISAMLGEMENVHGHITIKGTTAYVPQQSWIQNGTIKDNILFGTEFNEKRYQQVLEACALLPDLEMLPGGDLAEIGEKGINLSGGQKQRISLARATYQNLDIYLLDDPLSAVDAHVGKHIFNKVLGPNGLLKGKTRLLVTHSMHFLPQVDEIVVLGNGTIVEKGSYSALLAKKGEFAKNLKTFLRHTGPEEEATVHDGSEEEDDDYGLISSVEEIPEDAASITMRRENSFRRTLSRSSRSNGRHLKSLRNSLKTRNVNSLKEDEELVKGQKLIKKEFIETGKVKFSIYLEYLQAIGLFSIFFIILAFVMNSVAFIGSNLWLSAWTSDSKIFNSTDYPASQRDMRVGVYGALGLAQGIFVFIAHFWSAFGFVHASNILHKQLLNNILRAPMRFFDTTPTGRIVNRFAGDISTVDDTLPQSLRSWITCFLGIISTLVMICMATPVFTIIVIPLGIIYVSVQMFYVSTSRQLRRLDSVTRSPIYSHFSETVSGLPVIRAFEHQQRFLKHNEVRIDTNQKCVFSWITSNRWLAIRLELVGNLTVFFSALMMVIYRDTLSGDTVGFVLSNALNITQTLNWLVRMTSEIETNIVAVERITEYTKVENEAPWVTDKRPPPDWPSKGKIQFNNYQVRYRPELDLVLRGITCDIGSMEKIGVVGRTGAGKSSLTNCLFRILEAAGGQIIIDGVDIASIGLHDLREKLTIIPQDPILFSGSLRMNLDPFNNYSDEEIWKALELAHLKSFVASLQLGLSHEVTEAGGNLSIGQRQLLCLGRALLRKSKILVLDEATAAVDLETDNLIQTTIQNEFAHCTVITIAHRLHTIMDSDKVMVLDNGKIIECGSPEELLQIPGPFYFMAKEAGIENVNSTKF
Chain of MRP2 (Canis lupus familiaris, UniProt A0A8I3SCV5) (A0A8I3SCV5 1-1544): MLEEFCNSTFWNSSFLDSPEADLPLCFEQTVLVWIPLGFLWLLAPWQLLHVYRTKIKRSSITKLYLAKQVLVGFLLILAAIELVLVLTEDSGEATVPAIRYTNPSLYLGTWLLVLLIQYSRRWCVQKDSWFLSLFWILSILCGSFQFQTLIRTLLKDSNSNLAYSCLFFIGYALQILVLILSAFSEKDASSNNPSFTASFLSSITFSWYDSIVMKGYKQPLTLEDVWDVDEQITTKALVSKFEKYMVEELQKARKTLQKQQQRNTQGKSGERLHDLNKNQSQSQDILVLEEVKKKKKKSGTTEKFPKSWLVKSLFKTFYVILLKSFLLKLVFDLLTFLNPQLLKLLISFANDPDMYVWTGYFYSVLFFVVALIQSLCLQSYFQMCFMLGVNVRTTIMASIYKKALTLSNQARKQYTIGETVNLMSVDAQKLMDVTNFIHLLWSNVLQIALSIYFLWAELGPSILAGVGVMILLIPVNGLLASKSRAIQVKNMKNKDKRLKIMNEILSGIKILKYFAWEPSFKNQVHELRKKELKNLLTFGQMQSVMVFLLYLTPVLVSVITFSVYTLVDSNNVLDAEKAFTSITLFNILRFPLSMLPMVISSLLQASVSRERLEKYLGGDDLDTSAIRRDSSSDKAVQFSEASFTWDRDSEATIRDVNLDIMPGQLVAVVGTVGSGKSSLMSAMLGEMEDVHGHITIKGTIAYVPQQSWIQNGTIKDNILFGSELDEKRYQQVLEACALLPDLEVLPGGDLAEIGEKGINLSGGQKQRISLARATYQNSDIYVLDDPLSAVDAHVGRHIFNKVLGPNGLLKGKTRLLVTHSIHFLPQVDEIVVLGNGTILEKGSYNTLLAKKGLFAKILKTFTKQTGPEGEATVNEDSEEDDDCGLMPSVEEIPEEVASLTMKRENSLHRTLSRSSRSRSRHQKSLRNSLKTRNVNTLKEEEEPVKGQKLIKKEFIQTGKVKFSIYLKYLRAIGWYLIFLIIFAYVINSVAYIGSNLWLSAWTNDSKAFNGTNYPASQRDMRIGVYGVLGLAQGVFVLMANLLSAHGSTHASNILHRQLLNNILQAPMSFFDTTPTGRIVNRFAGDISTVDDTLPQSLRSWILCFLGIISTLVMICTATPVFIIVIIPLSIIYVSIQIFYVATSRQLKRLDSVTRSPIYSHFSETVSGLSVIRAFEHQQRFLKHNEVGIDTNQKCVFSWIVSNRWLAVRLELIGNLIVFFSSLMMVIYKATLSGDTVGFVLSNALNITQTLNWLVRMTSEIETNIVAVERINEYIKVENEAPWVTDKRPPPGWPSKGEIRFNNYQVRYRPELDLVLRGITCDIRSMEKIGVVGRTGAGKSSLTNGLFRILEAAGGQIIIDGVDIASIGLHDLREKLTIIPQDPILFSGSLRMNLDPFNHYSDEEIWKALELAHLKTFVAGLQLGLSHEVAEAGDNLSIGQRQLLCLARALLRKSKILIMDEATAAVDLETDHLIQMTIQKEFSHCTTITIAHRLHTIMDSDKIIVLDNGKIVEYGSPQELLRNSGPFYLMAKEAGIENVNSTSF

| IC50 (MRP2 [2]) [µM] | IC50 (MRP2 [4]) [µM] | IC50 (MRP2 [5]) [µM] | IC50 (MRP4) [µM] | IC50 (MRP3) [µM] | SMILES | IC50 (BSEP [1]) [µM] | BSEP inhibition (BSEP [1]; result in words) | IC50 (BSEP [3]) [µM] | BSEP inhibition (BSEP [3]; result in words) | IC50 (BSEP [6]) [µM] |
| --- | --- | --- | --- | --- | --- | --- | --- | --- | --- | --- |
| 1.8 | 83 | – | – | – | C[C@H](NC(=O)Cn1nnc2ccc(O[C@@H]3O[C@H](C(=O)O)[C@@H](O)[C@H](O)[C@H]3O)cc2c1=O)c1ccc(OC(F)(F)F)cc1 [Compound B, (2S,3S,4S,5R,6S)-3,4,5-trihydroxy-6-((4-oxo-3-(2-oxo-2-(((S)-1-(4-(trifluoromethoxy)phenyl)ethyl)amino)ethyl)-3,4-dihydrobenzo[d][1,2,3]triazin-6-yl)oxy)tetrahydro-2H-pyran-2-carboxylic acid] | > 200 | not identified | > 200 | not identified | – |
| > 200 | > 200 | > 200 | > 200 | > 200 | C[C@H](NC(=O)Cn1nnc2ccccc2c1=O)c1ccc(OC(F)(F)F)cc1 [Compound A, (S)-2-(4-oxobenzo[d][1,2,3]triazin-3(4H)-yl)-N-(1-(4-(trifluoromethoxy)phenyl)ethyl)acetamide] | > 200 | – | 72.3 | – | > 200 |
